Measurements reported in patent EP0104070A2, “Fungicidal N-phenylcarbamates” (priority 1982, dated 1984).
Read-outs that look alike come from different tables or passages of the source.

Key:
[1] = tested on: drug-resistant strain of Venturia nashicola; experiment: Preventive effect on scab of pear (Experiment 3), drug-resistant strain; conditions: pear seedlings, spray, 200 ppm active ingredient
Procedure: (§2) The disease severity was calculated according to the following equation: [formula]
(§3) The prevention value was calculated according to the following equation: [formula]
(§4) Preventive effect on scab of pear (Venturia nashicola):-
(§5) A plastic pot of 90 ml volume was filled with sandy soil, and seeds of pear (var: Chojuro) were sowed therein. Cultivation was carried out in a greenhouse for 20 days. Onto the resulting seedlings, the test compound formulated in emulsifiable concentrate or wettable powder and diluted with water was sprayed at a rate of 10 ml per pot. […] The resulting plants were placed at 20°C under a condition of high humidity for 3 days and then at 20°C under irradiation with a fluorescent lamp for 20 days.

[2] = tested on: drug-sensitive strain of Venturia nashicola; experiment: Preventive effect on scab of pear (Experiment 3), drug-sensitive strain; conditions: pear seedlings, spray, 200 ppm active ingredient
Procedure: as §2, §3, §4, §5

[3] = tested on: drug-resistant strain of Penicillium italicum; experiment: Preventive effect on green mold of orange (Experiment 7), drug-resistant strain; conditions: orange fruits immersed for 1 minute, 200 ppm active ingredient, 24 days
[4] = tested on: drug-sensitive strain of Penicillium italicum; experiment: Preventive effect on green mold of orange (Experiment 7), drug-sensitive strain; conditions: orange fruits immersed for 1 minute, 200 ppm active ingredient, 24 days
[5] = tested on: drug-resistant strain of Botrytis cinerea; experiment: Preventive effect on gray mold of cucumber (Experiment 5), drug-resistant strain; conditions: cucumber seedlings, spray, mycelial disks, 20°C for 3 days
Procedure: as §2, §3
(§6) Preventive effect on gray mold of cucumber (Botrytis cinerea):-Plastic pots of 90 ml volume was filled with sandy soil, and seeds of cucumber (var: Sagami-hanjiro) were sowed therein. Cultivation was carried out in a greenhouse for 8 days to obtain cucumber seedlings expanding cotyledons. Onto the resulting seedlings, the test compound formulated in emulsifiable concentrate or wettable powder and diluted with water was sprayed at a rate of 10 ml per pot. […] After the plants were infected by incubating under high humidity at 20°C for 3 days, the rates of disease severity were observed.

[6] = tested on: drug-sensitive strain of Botrytis cinerea; experiment: Preventive effect on gray mold of cucumber (Experiment 5), drug-sensitive strain; conditions: cucumber seedlings, spray, mycelial disks, 20°C for 3 days
Procedure: as §2, §3, §6

[7] = tested on: drug-resistant strain of Cercospora arachidicola; conditions: peanut seedlings, spray, 10 days
Procedure: as §2, §3
(§7) Preventive effect on brown leaf-spot of peanut (Cercospora arachidicola):-
(§8) A plastic pot of 90 ml volume was filled with sandy soil, and seeds of peanut (var: Chiba hanryusei) were sowed therein. Cultivation was carried out in a greenhouse for 14 days. Onto the resulting seedlings, the test compound formulated in emulsifiable concentrate or wettable powder and diluted with water was sprayed at a rate of 10 ml per pot. […] The resulting plants were covered with a polyvinyl chloride sheet to make a humide condition and cultivated in the greenhouse for 10 days.

[8] = tested on: drug-sensitive strain of Cercospora arachidicola; conditions: peanut seedlings, spray, 10 days
Procedure: as §2, §3, §7, §8

[9] = tested on: drug-resistant strain of Mycosphaerella melonis; conditions: cucumber seedlings, spray, 200 ppm active ingredient, 25°C for 4 days
Procedure: as §2, §3
(§9) Preventive effect on gummy stem blight of cucumber (Mycosphaerella melonis):-Plastic pots of 90 ml volume was filled with sandy soil, and seeds of cucumber (var: Sagami-hanjiro) were sowed therein. Cultivation was carried out in a greenhouse for 8 days to obtain cucumber seedlings expanding cotyledons. Onto the resulting seedlings, the test compound formulated in emulsifiable concentrate or wettable powder and diluted with water was sprayed at a rate of 10 ml per pot. […] After the plants were infected by incubating under high humidity at 25°C for 4 days, the rates of disease severity were observed.

[10] = tested on: drug-sensitive strain of Mycosphaerella melonis; conditions: cucumber seedlings, spray, 200 ppm active ingredient, 25°C for 4 days
Procedure: as §2, §3, §9

[11] = tested on: drug-resistant strain of Sphaerotheca fuliginea; conditions: Podosphaera fuliginea, in Cucumis sativus, 240 h, read-out: Prevention value when inoculated with drug-resistant strain (%)
Procedure: (§10) Protective activity test on powdery mildew of cucumber (Sphaerotheca fuliginea):-A flower pot of 90 ml volume was filed with sandy soil, and seeds of cucumber (var: Sagami-hanjiro) were sowed therein. Cultivation was carried out in a greenhouse for 8 days. Onto the resulting seedlings having cotyledons, the test compound formulated in emulsifiable concentrate or wettable powder and diluted with water was sprayed at a rate of 10 ml per pot. […] Ten days thereafter, the infectious state of the plants was observed.
as §2, §3

[12] = tested on: drug-sensitive strain of Sphaerotheca fuliginea; conditions: Podosphaera fuliginea, in Cucumis sativus, 240 h, read-out: Prevention value when inoculated with drug-sensitive strain (%)
Procedure: as §10, §2, §3

[13] = tested on: drug-resistant strain of Cercospora beticola; conditions: in Beta vulgaris, 240 h, read-out: Prevention value when inoculated with drug-resistant strain (%)
Procedure: as §2, §3
(§11) Preventive effect on cercospora leaf spot of sugarbeet (Cercospora beticola):-A flower pot of 90 ml volume was filled with sandy soil, and seeds of sugarbeet (var: Detroit dark red) were sowed therein. Cultivation was carried out in a greenhouse for 20 days. Onto the resulting seedlings, the test compound formulated in emulsifiable concentrate or wettable powder and diluted with water was sprayed at a rate of 10 ml per pot. […] The pot was covered with a polyvinyl chloride sheet to make a condition of high humidity, and cultivation was continued in the greenhouse for 10 days.

[14] = tested on: drug-sensitive strain of Cercospora beticola; conditions: in Beta vulgaris, 240 h, read-out: Prevention value when inoculated with drug-sensitive strain (%)
Procedure: as §2, §3, §11

[15] = tested on: wheat (var: Norin No. 61); experiment: Phytotoxicity to crop plants (Experiment 9), wheat; assay type: in vivo; set-up: key: -: No abnormality; +: Abnormality due to phytotoxicity observed in a part of crop plants; ++: Abnormality due to phytotoxicity observed in entire crop plants; +++: Crop plants withered due to phytotoxicity
Excerpt: (§1) Phytotoxicity to crop plants:-

apple (var: Kogyoku) = experiment: Phytotoxicity to crop plants (Experiment 9), apple; assay type: in vivo; set-up: key: -: No abnormality; +: Abnormality due to phytotoxicity observed in a part of crop plants; ++: Abnormality due to phytotoxicity observed in entire crop plants; +++: Crop plants withered due to phytotoxicity
Excerpt: as §1

[16] = tested on: peanut (var: Chiba hanryusei); experiment: Phytotoxicity to crop plants (Experiment 9), peanut; assay type: in vivo; set-up: key: -: No abnormality; +: Abnormality due to phytotoxicity observed in a part of crop plants; ++: Abnormality due to phytotoxicity observed in entire crop plants; +++: Crop plants withered due to phytotoxicity; conditions: spray, 1000 ppm active ingredient, 10 days
Excerpt: as §1

Pyricularia oryzae = assay type: in vivo
[17] = spray, 1000 ppm active ingredient, 10 days

Compound: COC(=O)NC(=S)Nc1ccccc1NC(=S)NC(=O)OC [Thiophanate-methyl, 1,2-bis(3-methoxycarbonyl-2-thioureido)benzene]
- Prevention value when inoculated with drug-resistant strain (%) [1]: 0%
- Prevention value when inoculated with drug-sensitive strain (%) [2]: 100%
- Prevention value when inoculated with drug-resistant strain (%) [3]: 0%
- Prevention value when inoculated with drug-sensitive strain (%) [4]: 100%
- Prevention value when inoculated with drug-resistant strain (%) ([5]; 200 ppm active ingredient): 0%
- Prevention value when inoculated with drug-sensitive strain (%) ([6]; 200 ppm active ingredient): 100%
- Prevention value when inoculated with drug-resistant strain (%) ([7]; 200 ppm active ingredient): 0%
- Prevention value when inoculated with drug-sensitive strain (%) ([8]; 200 ppm active ingredient): 100%
- Prevention value when inoculated with drug-resistant strain (%) [9]: 0%
- Prevention value when inoculated with drug-sensitive strain (%) [10]: 100%
- pest or weed control at 200 ppm [11]: 0%
- pest or weed control at 200 ppm [12]: 100%
- pest or weed control at 200 ppm [13]: 0%
- pest or weed control at 200 ppm [14]: 100%

Compound: CCCCNC(=O)n1c(NC(=O)OC)nc2ccccc21 [Benomyl, methyl 1-(butylcarbamoyl)benzimidazol-2-ylcarba-mate]
- Prevention value when inoculated with drug-resistant strain (%) [1]: 0%
- Prevention value when inoculated with drug-sensitive strain (%) [2]: 100%
- Prevention value when inoculated with drug-resistant strain (%) [3]: 0%
- Prevention value when inoculated with drug-sensitive strain (%) [4]: 100%
- Prevention value when inoculated with drug-resistant strain (%) ([5]; 200 ppm active ingredient): 0%
- Prevention value when inoculated with drug-sensitive strain (%) ([6]; 200 ppm active ingredient): 100%
- Prevention value when inoculated with drug-resistant strain (%) ([7]; 200 ppm active ingredient): 0%
- Prevention value when inoculated with drug-sensitive strain (%) ([8]; 200 ppm active ingredient): 100%
- Prevention value when inoculated with drug-resistant strain (%) [9]: 0%
- Prevention value when inoculated with drug-sensitive strain (%) [10]: 100%
- pest or weed control at 200 ppm [11]: 0%
- pest or weed control at 200 ppm [12]: 100%
- pest or weed control at 200 ppm [13]: 0%
- pest or weed control at 200 ppm [14]: 100%

Compound: COC(=O)Nc1ccc(Cl)c(Cl)c1 [Swep]
- Phytotoxicity Wheat [15, 17]: ++
- Phytotoxicity Apple (apple (var: Kogyoku); [17]): ++
- Phytotoxicity Peanut [16]: +

Compound: C#CC(C)OC(=O)Nc1cccc(Cl)c1 (centres unmarked) [Chlorbufam, 1-methyl-2-propynyl N-(3-chlorophenyl)carbamate]
- pest or weed control at 200 ppm [11]: 0%
- pest or weed control at 200 ppm [12]: 0%
- pest or weed control at 200 ppm [13]: 0%
- pest or weed control at 200 ppm [14]: 0%

Compound: COC(=O)Nc1nc2ccccc2[nH]1 [Carbendazim, methyl benz-imidazol-2-ylcarbamate]
- pest or weed control at 200 ppm [11]: 0%
- pest or weed control at 200 ppm [12]: 100%
- pest or weed control at 200 ppm [13]: 0%
- pest or weed control at 200 ppm [14]: 100%

Compound: O=C(Nc1cccc(Cl)c1)OCC#CCCl
- Phytotoxicity Wheat ([15]; in vivo): -
- Phytotoxicity Apple (apple (var: Kogyoku); in vivo): ++
- Phytotoxicity Peanut [16]: ++
- pest or weed control at 200 ppm [11]: 25%
- pest or weed control at 200 ppm [12]: 0%
- pest or weed control at 200 ppm [13]: 34%
- pest or weed control at 200 ppm [14]: 0%

Compound: CCOP(=O)(Sc1ccccc1)Sc1ccccc1 [Edifenphos]
- Prevention value (%) (Pyricularia oryzae; in vivo): 97%

Compound: O=C(Nc1cccc(Cl)c1)OCCCl [CEPC]
- Phytotoxicity Wheat [15, 17]: -
- Phytotoxicity Apple (apple (var: Kogyoku); [17]): ++
- Phytotoxicity Peanut [16]: ++
- pest or weed control at 200 ppm [11]: 0%
- pest or weed control at 200 ppm [12]: 0%
- pest or weed control at 200 ppm [13]: 0%
- pest or weed control at 200 ppm [14]: 0%

Compound: CCOc1c(Cl)cc(NC(=S)OC)cc1COC [Compound No. 13]
- Prevention value (%) (Pyricularia oryzae; rice seedlings of 3-leaf stage, spray, 1000 ppm active ingredient, 28°C for 3 days): 97%
- Phytotoxicity Wheat [15, 17]: -
- Phytotoxicity Apple (apple (var: Kogyoku); [17]): -
- Phytotoxicity Peanut [16]: -
- Prevention value when inoculated with drug-resistant strain (%) ([5]; 200 ppm active ingredient): 100%
- Prevention value when inoculated with drug-sensitive strain (%) ([6]; 200 ppm active ingredient): 0%
- Prevention value when inoculated with drug-resistant strain (%) ([7]; 200 ppm active ingredient): 97%
- Prevention value when inoculated with drug-sensitive strain (%) ([8]; 200 ppm active ingredient): 0%
- Prevention value when inoculated with drug-resistant strain (%) [9]: 100%
- Prevention value when inoculated with drug-sensitive strain (%) [10]: 0%

Compound: C=CCOC(=O)c1cc(NC(=S)OC)cc(COC)c1OCC [Compound No. 25, (3-methoxymethyl-4-ethoxy-5-allyloxycarbonyl)thiocarbanilic acid O-methyl ester]
- Prevention value when inoculated with drug-resistant strain (%) ([5]; 500 ppm active ingredient): 100%
- Prevention value when inoculated with drug-sensitive strain (%) ([6]; 500 ppm active ingredient): 0%

Compound: c1ccc2[nH]c(-c3cscn3)nc2c1 [Thiabendazole, 2-(4-thiazolyl)benzimidazole]
- Prevention value when inoculated with drug-resistant strain (%) ([5]; 200 ppm active ingredient): 0%
- Prevention value when inoculated with drug-sensitive strain (%) ([6]; 200 ppm active ingredient): 100%

Compound: CC(C)OC(=O)Nc1ccccc1 [Propham, isopropyl N-phenylcarbamate]
- pest or weed control at 200 ppm [11]: 0%
- pest or weed control at 200 ppm [12]: 0%
- pest or weed control at 200 ppm [13]: 0%
- pest or weed control at 200 ppm [14]: 0%

Compound: CCOc1c(C)cc(NC(=S)OCCF)cc1C [Compound No. 9]
- Phytotoxicity Wheat [15, 17]: -
- Phytotoxicity Apple (apple (var: Kogyoku); [17]): -
- Phytotoxicity Peanut [16]: -
- Prevention value when inoculated with drug-resistant strain (%) [3]: 94%
- Prevention value when inoculated with drug-sensitive strain (%) [4]: 0%
- Prevention value when inoculated with drug-resistant strain (%) ([5]; 200 ppm active ingredient): 100%
- Prevention value when inoculated with drug-sensitive strain (%) ([6]; 200 ppm active ingredient): 0%
- Prevention value when inoculated with drug-resistant strain (%) ([7]; 500 ppm active ingredient): 100%
- Prevention value when inoculated with drug-sensitive strain (%) ([8]; 500 ppm active ingredient): 0%
- Prevention value when inoculated with drug-resistant strain (%) [9]: 94%
- Prevention value when inoculated with drug-sensitive strain (%) [10]: 0%
- pest or weed control at 200 ppm [11]: 100%
- pest or weed control at 200 ppm [12]: 0%
- pest or weed control at 200 ppm [13]: 100%
- pest or weed control at 200 ppm [14]: 0%

Compound: CCOc1c(Cl)cc(NC(=S)OC(C)C)cc1COC [Compound No. 14, (3-chloro-4-ethoxy-5-methoxymethyl)thiocarbanilic acid O-isopropyl ester]
- Phytotoxicity Wheat [15, 17]: -
- Phytotoxicity Apple (apple (var: Kogyoku); [17]): -
- Phytotoxicity Peanut [16]: -
- Prevention value when inoculated with drug-resistant strain (%) ([5]; 200 ppm active ingredient): 100%
- Prevention value when inoculated with drug-sensitive strain (%) ([6]; 200 ppm active ingredient): 0%
- Prevention value when inoculated with drug-resistant strain (%) [9]: 100%
- Prevention value when inoculated with drug-sensitive strain (%) [10]: 0%
- pest or weed control at 200 ppm [11]: 100%
- pest or weed control at 200 ppm [12]: 0%
- pest or weed control at 500 ppm [13]: 100%
- pest or weed control at 500 ppm [14]: 0%

Compound: CCOc1cc(NC(=S)OC)cc(C=NOC)c1OCC [Compound No. 29, (3,4-diethoxy-5-methoxyiminomethyl)thiocarbanilic acid O-methyl ester]
- Prevention value when inoculated with drug-resistant strain (%) ([5]; 500 ppm active ingredient): 100%
- Prevention value when inoculated with drug-sensitive strain (%) ([6]; 500 ppm active ingredient): 0%

Compound: CC(C)OC(=O)Nc1cccc(Cl)c1 [Chlorpropham, isopropyl N-(3-chlorophenyl)carbamate]
- pest or weed control at 200 ppm [11]: 0%
- pest or weed control at 200 ppm [12]: 0%
- pest or weed control at 200 ppm [13]: 0%
- pest or weed control at 200 ppm [14]: 0%
